From patent US9475766B2, “Substituted aromatic sulfur compounds and methods of their use” (Cephalon, Inc., priority 2011, dated 2016)

How the values were obtained:
Type in all cases: cell-based
[1] = test system: SU86 pancreatic cancer cell line (Su.86.86); test: Cell survival and adhesion assay (luciferase), SU86; conditions: 5 hours, SU86 cells overlayed onto human mesothelial cell monolayers, read-out: relative reduction in Luciferase activity, SU86 10 μM
Experimental: (§1) SU86 is a pancreatic cancer cell line. HT29 is a colon cancer cell line. BxPC3 is a pancreatic cell line. A2780 is an ovarian cancer cell line.
(§2) BxPc-3 and Su.86.86 pancreatic and HT-29 colon and A2780 ovarian cancer cell lines were purchased from ATCC and cultured in DMEM supplemented with 10% fetal bovine serum, glutamine, penicillin, and streptomycin. All cells were cultured at 37° C. in a humidified incubator in a 5% CO2 atmosphere. The cancer cell lines were transduced with a retrovirus containing pLuc-puro, a constitutive luciferase reporter and selected in […] media. Transient transfection of a full-length human c-FLIP construct in the vector pcDNA3 was performed as previously described. Scaife et al. Cancer Research 2002, 62: 6870-78.
(§3) Pancreatic cancer cell cultures (BxPc-3 and Su.86.86) and colon cancer (HT-29) and ovarian cancer (A2780) cells that were stably transfected with a firefly luciferase construct were transiently suspended with trypsin-PBS. 10^5 cells were overlayed onto confluent monolayers of human mesothelial cells in 96-well plates while simultaneously adding various concentrations of compounds of the invention or DMSO for 5 hours. The non-adherent cells were carefully washed away from the wells twice with 100 μl/well of blocking buffer (1% BSA in PBS) and twice again with ice-cold PBS. Adherent and surviving cells were detected by luciferase activity in a luminometer as follows. The cells were lysed in 0.1% TritonX-100, 25 mM Gly-Gly (7.8), MgSO4, 4 mM EGTA, 1 mM DTT. The total protein concentration was normalized with lysis buffer. 50 μl of cell lysate was added per well of a 96-well microtiter plate. 50 μl of luciferin substrate (Promega) was added per well and then the light output determined in a luminometer.

[2] = test system: HT29 colon cancer cell line; test: Cell survival and adhesion assay (luciferase), HT29; conditions: HT-29, 5 hours, HT29 cells overlayed onto human mesothelial cell monolayers, read-out: relative reduction in Luciferase activity, HT29 10 μM
Experimental: as §1, §2, §3

[3] = test system: BxPC3 pancreatic cell line; test: Cell survival and adhesion assay (luciferase), BxPC3; conditions: BXPC-3, 5 hours, BxPC3 cells overlayed onto human mesothelial cell monolayers, read-out: relative reduction in Luciferase activity, BxPC3 10 μM
Experimental: as §1, §2, §3

[4] = test system: A2780 ovarian cancer cell line; test: Cell survival and adhesion assay (luciferase), A2780; conditions: 5 hours, A2780 cells overlayed onto human mesothelial cell monolayers, read-out: relative reduction in Luciferase activity, A2780 10 μM
Experimental: as §1, §2, §3

Row | Compound | inhibition at 10 µM [1] [%] | inhibition at 10 µM [2] [%] | inhibition at 10 µM [3] [%] | inhibition at 10 µM [4] [%]
1 | CC(C)(C(=O)O)c1ccc(S(=O)(=O)/C=C/C#N)cc1 [Example 1, 2-[4-((E)-2-Cyano-ethenesulfonyl)-phenyl]-2-methyl-propionic acid] | 10 to 50 | 10 to 50 | < 10 | < 10
2 | CC(C)(C(=O)O)c1cccc(S(=O)(=O)/C=C/C#N)c1 [Example 2, 2-[3-((E)-2-Cyano-ethenesulfonyl)-phenyl]-2-methyl-propionic acid] | < 10 | 10 to 50 | 10 to 50 | < 10
3 | N#C/C=C/S(=O)(=O)c1ccc(C2(C(=O)O)CC2)cc1 [Example 62, 1-[4-((E)-2-Cyano-ethenesulfonyl)-phenyl]-cyclopropanecarboxylic acid] | 10 to 50 | < 10 | < 10 | 10 to 50
4 | CC(C)(c1ccc(S(=O)(=O)/C=C/C#N)cc1)c1nnc(-c2ccccc2)o1 [Example 72, (E)-3-{4-[1-Methyl-1-(5-phenyl-[1,3,4]oxadiazol-2-yl)-ethyl]-benzenesulfonyl}-acrylonitrile] | 50 to 85 | > 85 | 50 to 85 | > 85
5 | CC(C)(C(=O)NC1CCOCC1)c1ccc(S(=O)(=O)/C=C/C#N)cc1 [Example 13, 2-[4-((E)-2-Cyano-ethenesulfonyl)-phenyl]-N-(tetrahydro-pyran-4-yl)-isobutyramide] | < 10 | 10 to 50 | < 10 | < 10
6 | CC(C)(C(=O)N1CCOCC1)c1ccc(S(=O)(=O)/C=C/C#N)cc1 [Example 3, (E)-3-[4-(1,1-Dimethyl-2-morpholin-4-yl-2-oxo-ethyl)-benzenesulfonyl]-acrylonitrile] | < 10 | < 10 | 10 to 50 | 10 to 50
7 | CC(C)CNC(=O)C(C)(C)c1ccc(S(=O)(=O)/C=C/C#N)cc1 [Example 8, 2-[4-((E)-2-Cyano-ethenesulfonyl)-phenyl]-N-isobutyl-isobutyramide] | 50 to 85 | 10 to 50 | 50 to 85 | 50 to 85
8 | CC(C)(C)c1cc(S(=O)(=O)/C=C/C#N)ccc1OCC(=O)O [Example 61, [2-tert-Butyl-4-((E)-2-cyano-ethenesulfonyl)-phenoxy]-acetic acid] | < 10 | < 10 | 10 to 50 | < 10
9 | CC(C)(C(=O)NCc1ccccn1)c1ccc(S(=O)(=O)/C=C/C#N)cc1 [Example 7, 2-[4-((E)-2-Cyano-ethenesulfonyl)-phenyl]-N-pyridin-2-ylmethyl-isobutyramide] | 10 to 50 | < 10 | 10 to 50 | 10 to 50
10 | COc1cccc(NC(=O)COc2ccc(S(=O)(=O)/C=C/C#N)cc2C(C)(C)C)c1 [Example 65, 2-[2-tert-Butyl-4-((E)-2-cyano-ethenesulfonyl)-phenoxy]-N-(3-methoxy-phenyl)-acetamide] | 50 to 85 | > 85 | 50 to 85 | > 85
11 | CC(C)(C)c1cc(S(=O)(=O)/C=C/C#N)ccc1OCC(=O)NC1CCCCC1 [Example 63, 2-[2-tert-Butyl-4-((E)-2-cyano-ethenesulfonyl)-phenoxy]-N-cyclohexyl-acetamide] | 50 to 85 | > 85 | > 85 | > 85
12 | Cc1ccc2oc(C(C)(C)c3cccc(S(=O)(=O)/C=C/C#N)c3)nc2c1 [Example 66, (E)-3-{3-[1-Methyl-1-(5-methyl-benzoxazol-2-yl)-ethyl]-benzenesulfonyl}-acrylonitrile; compound with trifluoro-acetic acid] | 50 to 85 | > 85 | 50 to 85 | > 85
13 | CC(C)(C(=O)NCc1ccc(Cl)cc1)c1ccc(S(=O)(=O)/C=C/C#N)cc1 [Example 14, N-(4-Chloro-benzyl)-2-[4-((E)-2-cyano-ethenesulfonyl)-phenyl]-isobutyramide] | 50 to 85 | 10 to 50 | 50 to 85 | > 85
14 | CN1CCN(C(=O)C(C)(C)c2ccc(S(=O)(=O)/C=C/C#N)cc2)CC1 [Example 9, (E)-3-{4-[1,1-Dimethyl-2-(4-methyl-piperazin-1-yl)-2-oxo-ethyl]-benzenesulfonyl}-acrylonitrile] | < 10 | < 10 | < 10 | < 10
15 | CC(C)(C)c1ccc2cc(S(=O)(=O)/C=C/C#N)ccc2n1 [Example 70, (E)-3-(2-tert-Butyl-quinoline-6-sulfonyl)-acrylonitrile] | 50 to 85 | > 85 | 50 to 85 | > 85
16 | CC(C)(C(=O)NCCO)c1ccc(S(=O)(=O)/C=C/C#N)cc1 [Example 4, 2-[4-((E)-2-Cyano-ethenesulfonyl)-phenyl]-N-(2-hydroxy-ethyl)-isobutyramide] | < 10 | 10 to 50 | < 10 | < 10
17 | CC(C)(C(=O)NCC1CC1)c1ccc(S(=O)(=O)/C=C/C#N)cc1 [Example 10] | 10 to 50 | < 10 | 10 to 50 | 50 to 85
18 | CC(C)(C(=O)NCc1ccccc1)c1ccc(S(=O)(=O)/C=C/C#N)cc1 [Example 6, N-Benzyl-2-[4-((E)-2-cyano-ethenesulfonyl)-phenyl]-isobutyramide] | 50 to 85 | < 10 | 50 to 85 | > 85
19 | CC(C)(c1ccc(S(=O)(=O)/C=C/C#N)cc1)c1nc2ccccc2o1 [Example 78, (E)-3-[4-(1-Benzoxazol-2-yl-1-methyl-ethyl)-benzenesulfonyl]-acrylonitrile] | 50 to 85 | > 85 | 50 to 85 | > 85
20 | CC(C)(C(=O)Nc1ccccc1O)c1ccc(S(=O)(=O)/C=C/C#N)cc1 [Example 73, 2-[4-((E)-2-Cyano-ethenesulfonyl)-phenyl]-N-(2-hydroxy-phenyl)-isobutyramide] | 10 to 50 | > 85 | 50 to 85 | 50 to 85
21 | CC(C)(C)c1cc(S(=O)(=O)/C=C/C#N)ccc1OCC(=O)NCc1ccc(F)cc1 [Example 64, 2-[2-tert-Butyl-4-((E)-2-cyano-ethenesulfonyl)-phenoxy]-N-(4-fluoro-benzyl)-acetamide] | 50 to 85 | > 85 | > 85 | > 85
22 | CC(C)(C(=O)NC1CCCCC1)c1ccc(S(=O)(=O)/C=C/C#N)cn1 [Example 86, 2-[5-((E)-2-Cyano-ethenesulfonyl)-pyridin-2-yl]-N-cyclohexyl-isobutyramide] | 10 to 50 | > 85 | 50 to 85 | 10 to 50
